# Patent US4291164A, “Cephalosporin analogs and methods for production thereof” (Kyowa Hakko Kogyo Co., Ltd., priority 1978, dated 1981)
# Structures can show the parent of a compound that is named as a salt.
# Legend:
# Format in all cases: cell-based
# [1] = system: Staphylococcus aureus 209p; experiment: Antibacterial activity, Heart Infusion Agar Dilution Method, Staphylococcus aureus 209p; conditions: for MIC: pH 7.2, read-out: Minimum Inhibitory Concentration
# Experimental: (§1) The antibacterial activity of the compounds obtained in the above Examples 24, 26, 28, 30, 32, 34, 36, 38, 40 and 41 are determined by Heart Infusion Agar Dilution Method (pH 7.2). Cefazolin is used as a reference.
# [2] = system: Staphylococcus aureus Smith; experiment: Antibacterial activity, Heart Infusion Agar Dilution Method, Staphylococcus aureus Smith; conditions: for MIC: pH 7.2, read-out: Minimum Inhibitory Concentration
# Experimental: as §1
# [3] = system: Staphylococcus epidermidis; experiment: Antibacterial activity, Heart Infusion Agar Dilution Method, Staphylococcus epidermidis; conditions: for MIC: pH 7.2, read-out: Minimum Inhibitory Concentration
# Experimental: as §1
# Escherichia coli NIHJC2 = experiment: Antibacterial activity, Heart Infusion Agar Dilution Method, Escherichia coli NIHJC2; conditions: Escherichia coli NIHJC2, Heart Infusion Agar Dilution, pH 7.2; for MIC: read-out: Minimum Inhibitory Concentration
# Experimental: as §1
# Escherichia coli Juhl = experiment: Antibacterial activity, Heart Infusion Agar Dilution Method, Escherichia coli Juhl; conditions: Escherichia coli Juhl; Heart Infusion Agar Dilution, pH 7.2; read-out: Minimum Inhibitory Concentration
# [4] = system: Klebsiella pneumoniae 8045; experiment: Antibacterial activity, Heart Infusion Agar Dilution Method, Klebsiella pneumoniae 8045; conditions: for MIC: pH 7.2, read-out: Minimum Inhibitory Concentration
# Experimental: as §1
# [5] = system: Klebsiella pneumoniae Y60; experiment: Antibacterial activity, Heart Infusion Agar Dilution Method, Klebsiella pneumoniae Y60; conditions: pH 7.2, read-out: Minimum Inhibitory Concentration
# Serratia marcescens T26 = experiment: Antibacterial activity, Heart Infusion Agar Dilution Method, Serratia marcescens T26; conditions: for MIC: pH 7.2, read-out: Minimum Inhibitory Concentration
# Serratia marcescens T55 = experiment: Antibacterial activity, Heart Infusion Agar Dilution Method, Serratia marcescens T55; conditions: for MIC: pH 7.2, read-out: Minimum Inhibitory Concentration
# Proteus mirabilis 1287 = experiment: Antibacterial activity, Heart Infusion Agar Dilution Method, Proteus mirabilis 1287; conditions: for MIC: pH 7.2, read-out: Minimum Inhibitory Concentration
# Experimental: as §1
# Proteus vulgaris 6897 = experiment: Antibacterial activity, Heart Infusion Agar Dilution Method, Proteus vulgaris 6897; conditions: for MIC: pH 7.2, read-out: Minimum Inhibitory Concentration
# Experimental: as §1
# Proteus morganii KY4298 = experiment: Antibacterial activity, Heart Infusion Agar Dilution Method, Proteus morganii KY4298; conditions: for MIC: Morganella morganii, pH 7.2, read-out: Minimum Inhibitory Concentration
# Experimental: as §1
# Proteus rettgeri KY4289 = experiment: Antibacterial activity, Heart Infusion Agar Dilution Method, Proteus rettgeri KY4289; conditions: for MIC: Providencia rettgeri, pH 7.2, read-out: Minimum Inhibitory Concentration
# Experimental: as §1
# [6] = system: Pseudomonas aeruginosa 145; experiment: Antibacterial activity, Heart Infusion Agar Dilution Method, Pseudomonas aeruginosa 145; conditions: for MIC: Pseudomonas aeruginosa, 145, pH 7.2, read-out: Minimum Inhibitory Concentration
# Experimental: as §1
# Pseudomonas putida F264 = experiment: Antibacterial activity, Heart Infusion Agar Dilution Method, Pseudomonas putida F264; conditions: for MIC: pH 7.2, read-out: Minimum Inhibitory Concentration
SMILES,MIC [1] [mg/L],MIC [2] [mg/L],MIC [3] [mg/L],MIC (Escherichia coli NIHJC2) [mg/L],MIC (Escherichia coli Juhl) [mg/L],MIC [4] [mg/L],MIC [5] [mg/L],MIC (Serratia marcescens T26) [mg/L],MIC (Serratia marcescens T55) [mg/L],MIC (Proteus mirabilis 1287) [mg/L],MIC (Proteus vulgaris 6897) [mg/L],MIC (Proteus morganii KY4298) [mg/L],MIC (Proteus rettgeri KY4289) [mg/L],MIC [6] [mg/L],MIC (Pseudomonas putida F264) [mg/L],further results
"N[C@@H](C(=O)N[C@H]1C(=O)N2C(C(=O)O)=CCC[C@H]12)c1ccccc1 (racemic) [Example 26, (±)-cis-7-[(R)-2-phenyl-2-aminoacetamido]-1-azabicyclo-[4,2,0]oct-2-en-8-on-2-carboxylic acid]",0.4,12.5,6.25,12.5,12.5,3.12,12.5,> 100,25,25,25,100,50,> 100,> 100,
"CON=C(C(=O)NC1C(=O)N2C(C(=O)O)=CC(C)CC12)c1csc(N)n1 (racemic) [Example 36, (±)-cis-7β-[2-(2-amino-4-thiazolyl)-2-methoxyiminoacetamido]-4β-methyl-2-carboxy-1-azabicyclo[4,2,0]oct-2-en-8-one]",,,,,,,,,,,,,,,,"Minimum Inhibitory Concentration ([1]; pH 7.2): 50 µg/mL; Minimum Inhibitory Concentration ([2]; pH 7.2): 100 µg/mL; Minimum Inhibitory Concentration ([3]; pH 7.2): > 100 µg/mL; Minimum Inhibitory Concentration (Escherichia coli NIHJC2): 0.2 µg/mL; Minimum Inhibitory Concentration ([4]; pH 7.2): 0.2 µg/mL; Minimum Inhibitory Concentration (Serratia marcescens T26; pH 7.2): 6.25 µg/mL; Minimum Inhibitory Concentration (Serratia marcescens T55; pH 7.2): 3.12 µg/mL; Minimum Inhibitory Concentration (Proteus mirabilis 1287; pH 7.2): 0.78 µg/mL; Minimum Inhibitory Concentration (Proteus vulgaris 6897; pH 7.2): 0.78 µg/mL; Minimum Inhibitory Concentration (Proteus morganii KY4298; pH 7.2): 0.78 µg/mL; Minimum Inhibitory Concentration (Proteus rettgeri KY4289; pH 7.2): 0.4 µg/mL; Minimum Inhibitory Concentration ([6]; Pseudomonas aeruginosa 145, Heart Infusion Agar Dilution, pH 7.2): > 100 µg/mL; Minimum Inhibitory Concentration (Pseudomonas putida F264; pH 7.2): 0.4 µg/mL"
"C[C@@H]1C=C(C(=O)O)N2C(=O)[C@@H](NC(=O)[C@H](N)c3ccccc3)[C@H]2C1 (relative stereo) [Example 32, (±)-cis-7β-[(R)-2-phenyl-2-aminoacetamido]-4α-methyl-2-carboxy-1-azabicyclo[4,2,0]oct-2-en-8-one]",0.78,6.25,6.25,12.5,12.5,3.12,> 100,> 100,25,50,50,100,> 100,> 100,100,
"CO/N=C(/C(=O)N[C@@H]1C(=O)N2C(C(=O)O)=C[C@@H](C)C[C@H]12)c1csc(N)n1 (relative stereo) [Example 34, (±)-cis-7β[2-(2-amino-4-thiazolyl)-2-anti-methoxyiminoacetamido]-4α-methyl-2-carboxy-1-azabicyclo[4,2,0]oct-2-en-8-one]",12.5,25,25,0.4,0.78,0.1,,25,,0.2,< 0.05,0.78,0.1,> 100,,

# Continued by falling MIC [1], values first:
MIC [1] [mg/L],MIC [2] [mg/L],MIC [3] [mg/L],MIC (Escherichia coli NIHJC2) [mg/L],MIC (Escherichia coli Juhl) [mg/L],MIC [4] [mg/L],MIC [5] [mg/L],MIC (Serratia marcescens T26) [mg/L],MIC (Serratia marcescens T55) [mg/L],MIC (Proteus mirabilis 1287) [mg/L],MIC (Proteus vulgaris 6897) [mg/L],MIC (Proteus morganii KY4298) [mg/L],MIC (Proteus rettgeri KY4289) [mg/L],MIC [6] [mg/L],MIC (Pseudomonas putida F264) [mg/L],SMILES,further results
100,> 100,100,0.78,1.56,0.2,1.56,3.12,1.56,0.78,0.4,0.78,0.1,> 100,0.78,"CO/N=C(/C(=O)N[C@@H]1C(=O)N2C(C(=O)O)=CCC[C@H]12)c1csc(N)n1 (relative stereo) [Example 24, (±)-cis-7-[2-(2-amino-4-thiazolyl)-2-anti-methoxyimino-acetamido]-1-azabicyclo[4,2,0]oct-2-en-8-one-2-carboxylic acid]",
0.4,1.56,3.12,50,25,6.25,100,> 100,> 100,> 100,> 100,> 100,> 100,> 100,> 100,"C[C@H]1C=C(C(=O)O)N2C(=O)[C@@H](NC(=O)[C@H](N)c3ccccc3)[C@H]2C1 (relative stereo) [Example 30, trifluoroacetate of (±)-cis-7β-[(R)-2-phenyl-2-aminoacetamido]-4β-methyl-2-carboxy-1-azabicyclo[4,2,0]oct-2-en-8-one]",
